# ChEMBL document CHEMBL5465560, “Selectivity Literature for EUbOPEN Chemogenomic Library” (2024)
# Assays:
# [1] = target: cGMP-specific 3',5'-cyclic phosphodiesterase (Homo sapiens) (UniProt O76074); test: Selectivity interaction (Eurofins safety panel) EUB0001564a PDE5A; settings: at 10 µM
# [2] = target: Tyrosine-protein kinase BTK (Homo sapiens, UniProt Q06187); settings: at 10 µM
# [3] = target: T1, Serine/threonine-protein kinase 17B (Homo sapiens) (UniProt O94768); settings: at 10 µM
# T1 sequence (whole entry): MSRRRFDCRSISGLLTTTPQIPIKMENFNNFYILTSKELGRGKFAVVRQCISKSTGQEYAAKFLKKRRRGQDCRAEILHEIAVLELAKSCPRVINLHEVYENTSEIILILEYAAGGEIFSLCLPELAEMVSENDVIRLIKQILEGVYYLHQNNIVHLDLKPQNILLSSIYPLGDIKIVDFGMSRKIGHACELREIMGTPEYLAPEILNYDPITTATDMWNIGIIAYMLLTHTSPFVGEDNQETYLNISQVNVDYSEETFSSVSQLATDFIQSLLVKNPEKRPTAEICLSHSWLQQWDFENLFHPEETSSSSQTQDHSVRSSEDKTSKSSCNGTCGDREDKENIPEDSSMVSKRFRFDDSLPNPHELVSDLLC
# [4] = target: T2, Mitogen-activated protein kinase 9 (Homo sapiens, UniProt P45984); test: Selectivity interaction (Kinase panel (literature)) EUB0001199aCl MAPK9; settings: at 1 µM
# [5] = target: Calcium/calmodulin-dependent protein kinase type II subunit delta (Homo sapiens) (UniProt Q13557); test: Selectivity interaction (KinomeScan (DiscoverX)) EUB0000655a CAMK2D; settings: at 10 µM
# [6] = target: Histamine H1 receptor (Homo sapiens, UniProt P35367); test: Selectivity interaction (GPCR panel (PDSP screen)) EUB0001079a HRH1; settings: at 10 µM
# [7] = target: Serine/threonine-protein kinase PAK 3 (Homo sapiens) (UniProt O75914); test: Selectivity interaction (KinomeScan (DiscoverX)) EUB0000618a PAK3; settings: at 10 µM
# [8] = target: T3, cGMP-dependent protein kinase 2 (Homo sapiens) (UniProt Q13237); test: Selectivity interaction (KinomeScan (DiscoverX)) EUB0000618a PRKG2; settings: at 10 µM
# T3 sequence (whole entry): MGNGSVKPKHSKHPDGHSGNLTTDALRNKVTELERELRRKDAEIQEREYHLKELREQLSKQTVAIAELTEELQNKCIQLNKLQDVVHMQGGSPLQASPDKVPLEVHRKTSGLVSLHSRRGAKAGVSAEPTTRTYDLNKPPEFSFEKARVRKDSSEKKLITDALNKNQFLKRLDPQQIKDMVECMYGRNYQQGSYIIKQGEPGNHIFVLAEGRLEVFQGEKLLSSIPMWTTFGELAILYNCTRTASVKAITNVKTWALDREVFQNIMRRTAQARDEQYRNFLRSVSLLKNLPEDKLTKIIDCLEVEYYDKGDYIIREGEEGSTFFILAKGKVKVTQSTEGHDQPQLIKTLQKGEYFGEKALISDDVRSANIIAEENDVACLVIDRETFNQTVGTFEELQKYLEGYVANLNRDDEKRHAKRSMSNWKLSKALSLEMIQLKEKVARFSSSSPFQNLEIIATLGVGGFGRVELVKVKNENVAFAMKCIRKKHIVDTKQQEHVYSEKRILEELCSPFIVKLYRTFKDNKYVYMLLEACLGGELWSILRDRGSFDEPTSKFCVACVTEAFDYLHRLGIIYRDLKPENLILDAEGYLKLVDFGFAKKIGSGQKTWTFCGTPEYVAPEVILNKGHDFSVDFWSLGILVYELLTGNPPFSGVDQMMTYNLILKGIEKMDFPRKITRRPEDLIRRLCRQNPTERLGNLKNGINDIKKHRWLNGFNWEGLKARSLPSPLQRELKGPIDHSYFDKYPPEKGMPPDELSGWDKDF
# [9] = target: Ribosomal protein S6 kinase alpha-1 (Homo sapiens, UniProt Q15418); test: Selectivity interaction (ActivX KiNativ screen (ex vivo kinase selectivity in human PBMCs)) EUB0001619a RPS6KA1; type: cell-based; settings: PBMC, at 1 µM
# [10] = target: Ribosomal protein S6 kinase alpha-6 (Homo sapiens, UniProt Q9UK32); test: Selectivity interaction (KinomeScan (DiscoverX)) EUB0000045b RPS6KA6; settings: at 10 µM
# [11] = target: Insulin receptor-related protein (Homo sapiens) (UniProt P14616); test: Selectivity interaction (Upstate Kinase Profiler service (Millipore)) EUB0000056c INSRR; settings: at 1 µM
# [12] = target: RAC-alpha serine/threonine-protein kinase (Homo sapiens, UniProt P31749); test: Selectivity interaction (Upstate Kinase Profiler service (Millipore)) EUB0000056c AKT1; settings: at 1 µM
# [13] = target: Serine/threonine-protein kinase PAK 3 (Homo sapiens) (UniProt O75914); settings: at 10 µM
# [14] = target: Serine/threonine-protein kinase 16 (Homo sapiens, UniProt O75716); test: Selectivity interaction (ActivX KiNativ screen (kinase selectivity in THP-1 cell lysates)) EUB0000639a STK16; type: subcellular; settings: lysate, at 0.01 µM
# [15] = target: Ribosomal protein S6 kinase alpha-3 (Homo sapiens, UniProt P51812); test: Selectivity interaction (ActivX KiNativ screen (kinase selectivity in THP-1 cell lysates)) EUB0000639a RPS6KA3; type: subcellular; settings: lysate, at 0.01 µM
# [16] = target: T2, Mitogen-activated protein kinase 9; test: Selectivity interaction (KinomeScan (DiscoverX)) EUB0000229b MAPK9; settings: at 10 µM
# [17] = system: ALK tyrosine kinase receptor (Homo sapiens), Q9UM73 [F1174L]; test: (§1) Selectivity interaction (ProQinase) EUB0000171b ALK
# [18] = target: ALK tyrosine kinase receptor (Homo sapiens, UniProt Q9UM73); test: as §1
# [19] = system: ALK tyrosine kinase receptor (Homo sapiens), Q9UM73 [L1196M]; test: as §1
# [20] = system: ALK tyrosine kinase receptor (Homo sapiens), Q9UM73 [F1174S]; test: as §1
# [21] = system: ALK tyrosine kinase receptor (Homo sapiens), Q9UM73 [R1275Q]; test: as §1
# [22] = system: ALK tyrosine kinase receptor (Homo sapiens), Q9UM73 [C1156Y]; test: as §1
# [23] = target: MAP kinase-activated protein kinase 2 (Homo sapiens, UniProt P49137); test: Selectivity interaction (Kinase panel (33PanQinase(R) Activity Assay)) EUB0000877a MAPKAPK2
# [24] = target: Receptor tyrosine-protein kinase erbB-2 (Homo sapiens, UniProt P04626); test: Selectivity interaction (KinomeScan (DiscoverX)) EUB0000666a ERBB2; settings: at 10 µM
# [25] = target: Serine/threonine-protein kinase 38 (Homo sapiens) (UniProt Q15208); test: Selectivity interaction (KinomeScan (DiscoverX)) EUB0000092b STK38; settings: at 10 µM
# Sequence of Serine/threonine-protein kinase PAK 3 (Homo sapiens) (O75914 whole entry, looked up): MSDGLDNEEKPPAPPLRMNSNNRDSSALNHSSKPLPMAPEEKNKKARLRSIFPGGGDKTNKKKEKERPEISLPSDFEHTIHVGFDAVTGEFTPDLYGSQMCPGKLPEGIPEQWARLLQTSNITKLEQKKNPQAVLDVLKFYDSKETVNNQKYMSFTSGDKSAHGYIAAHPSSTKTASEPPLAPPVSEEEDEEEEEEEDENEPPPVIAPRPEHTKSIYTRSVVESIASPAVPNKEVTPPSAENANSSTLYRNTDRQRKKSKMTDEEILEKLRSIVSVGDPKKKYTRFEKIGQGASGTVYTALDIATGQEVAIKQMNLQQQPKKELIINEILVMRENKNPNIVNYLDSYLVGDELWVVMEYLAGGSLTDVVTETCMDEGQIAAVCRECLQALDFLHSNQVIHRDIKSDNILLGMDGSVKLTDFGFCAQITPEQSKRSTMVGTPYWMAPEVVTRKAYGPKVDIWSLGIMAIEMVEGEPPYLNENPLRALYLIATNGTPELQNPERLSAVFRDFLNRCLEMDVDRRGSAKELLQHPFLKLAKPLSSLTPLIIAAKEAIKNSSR
# Sequence of ALK tyrosine kinase receptor (Homo sapiens), Q9UM73 [F1174S] (Q9UM73 whole entry F1174S): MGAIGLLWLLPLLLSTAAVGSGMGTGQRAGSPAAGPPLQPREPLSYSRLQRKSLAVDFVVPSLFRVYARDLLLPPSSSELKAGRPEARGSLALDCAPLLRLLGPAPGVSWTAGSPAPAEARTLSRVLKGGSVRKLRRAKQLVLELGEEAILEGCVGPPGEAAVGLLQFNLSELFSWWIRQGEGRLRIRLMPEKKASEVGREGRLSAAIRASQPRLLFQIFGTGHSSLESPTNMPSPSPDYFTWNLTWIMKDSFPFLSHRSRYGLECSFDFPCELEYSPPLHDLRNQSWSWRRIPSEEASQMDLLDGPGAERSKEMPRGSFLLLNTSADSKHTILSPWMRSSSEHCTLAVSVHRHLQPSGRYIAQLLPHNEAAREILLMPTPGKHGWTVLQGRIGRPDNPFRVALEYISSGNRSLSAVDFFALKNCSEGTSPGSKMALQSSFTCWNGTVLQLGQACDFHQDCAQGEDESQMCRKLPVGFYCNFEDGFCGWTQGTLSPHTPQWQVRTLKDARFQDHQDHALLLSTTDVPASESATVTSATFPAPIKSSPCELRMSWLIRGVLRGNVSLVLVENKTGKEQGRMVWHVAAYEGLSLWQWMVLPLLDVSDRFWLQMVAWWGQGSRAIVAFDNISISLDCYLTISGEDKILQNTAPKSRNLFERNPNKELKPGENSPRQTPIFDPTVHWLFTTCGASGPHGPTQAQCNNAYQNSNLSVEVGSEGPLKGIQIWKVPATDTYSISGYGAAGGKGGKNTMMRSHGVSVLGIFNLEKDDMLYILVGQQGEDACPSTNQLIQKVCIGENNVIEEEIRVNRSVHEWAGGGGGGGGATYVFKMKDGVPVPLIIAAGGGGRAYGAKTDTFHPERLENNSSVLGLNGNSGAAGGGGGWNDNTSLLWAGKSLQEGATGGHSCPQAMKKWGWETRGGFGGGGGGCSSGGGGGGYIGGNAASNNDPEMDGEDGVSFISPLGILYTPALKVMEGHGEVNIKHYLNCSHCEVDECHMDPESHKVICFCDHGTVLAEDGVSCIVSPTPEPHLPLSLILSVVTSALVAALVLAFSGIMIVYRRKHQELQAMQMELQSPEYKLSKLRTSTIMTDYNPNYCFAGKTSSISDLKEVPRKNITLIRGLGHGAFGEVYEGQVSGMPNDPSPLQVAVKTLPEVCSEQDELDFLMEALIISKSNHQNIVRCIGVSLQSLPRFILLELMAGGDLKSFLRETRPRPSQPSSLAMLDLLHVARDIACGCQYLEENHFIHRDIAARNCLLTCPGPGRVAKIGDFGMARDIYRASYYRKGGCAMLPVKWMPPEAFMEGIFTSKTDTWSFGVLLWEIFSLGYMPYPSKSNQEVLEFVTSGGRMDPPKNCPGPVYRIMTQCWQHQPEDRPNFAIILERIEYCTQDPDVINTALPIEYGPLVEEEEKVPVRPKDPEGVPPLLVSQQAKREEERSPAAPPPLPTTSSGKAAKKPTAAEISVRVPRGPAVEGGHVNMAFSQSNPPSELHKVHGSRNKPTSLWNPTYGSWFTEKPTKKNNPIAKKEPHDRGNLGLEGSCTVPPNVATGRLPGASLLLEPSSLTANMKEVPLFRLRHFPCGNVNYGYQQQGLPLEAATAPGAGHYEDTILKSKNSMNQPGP
# Sequence of ALK tyrosine kinase receptor (Homo sapiens), Q9UM73 [F1174L] (Q9UM73 whole entry F1174L): as the sequence (Q9UM73 whole entry F1174S) above, with S1174L counted along it
# T2 sequence (P45984 whole entry, looked up): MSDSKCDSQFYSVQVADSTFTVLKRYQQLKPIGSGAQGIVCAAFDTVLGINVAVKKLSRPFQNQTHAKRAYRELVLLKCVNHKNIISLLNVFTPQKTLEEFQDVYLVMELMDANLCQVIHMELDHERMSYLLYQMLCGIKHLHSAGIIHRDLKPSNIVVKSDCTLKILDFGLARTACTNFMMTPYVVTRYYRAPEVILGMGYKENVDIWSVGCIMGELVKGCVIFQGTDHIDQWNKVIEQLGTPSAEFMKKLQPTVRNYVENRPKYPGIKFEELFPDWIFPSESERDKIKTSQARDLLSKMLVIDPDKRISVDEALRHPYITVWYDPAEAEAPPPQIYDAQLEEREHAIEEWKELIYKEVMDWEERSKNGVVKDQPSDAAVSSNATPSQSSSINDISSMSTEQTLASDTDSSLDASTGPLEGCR
# Sequence of Ribosomal protein S6 kinase alpha-1 (Q15418 whole entry): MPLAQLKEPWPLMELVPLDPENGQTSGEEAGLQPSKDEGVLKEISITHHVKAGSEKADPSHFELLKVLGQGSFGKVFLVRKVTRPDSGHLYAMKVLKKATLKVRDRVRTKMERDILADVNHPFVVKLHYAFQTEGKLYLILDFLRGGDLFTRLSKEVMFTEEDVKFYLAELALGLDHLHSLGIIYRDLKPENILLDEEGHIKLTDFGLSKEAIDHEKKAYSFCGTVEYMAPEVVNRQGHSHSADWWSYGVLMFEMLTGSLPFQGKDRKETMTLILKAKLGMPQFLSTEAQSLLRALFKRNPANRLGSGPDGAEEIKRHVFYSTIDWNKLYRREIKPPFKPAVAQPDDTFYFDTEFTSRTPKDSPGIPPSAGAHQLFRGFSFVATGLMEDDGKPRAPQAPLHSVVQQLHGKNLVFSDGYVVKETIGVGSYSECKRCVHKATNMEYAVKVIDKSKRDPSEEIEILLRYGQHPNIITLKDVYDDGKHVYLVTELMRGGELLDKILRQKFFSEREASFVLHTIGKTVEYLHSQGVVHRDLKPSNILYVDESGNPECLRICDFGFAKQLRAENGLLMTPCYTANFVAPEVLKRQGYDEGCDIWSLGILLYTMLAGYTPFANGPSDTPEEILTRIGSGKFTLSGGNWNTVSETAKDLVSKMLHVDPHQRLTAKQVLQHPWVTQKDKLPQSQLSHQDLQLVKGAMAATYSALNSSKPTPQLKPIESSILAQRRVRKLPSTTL
smiles,measurement,setting,value
CC[C@@H](Nc1c(C#N)c(-c2ccc(-c3cccc(C)c3F)cc2)nc2cnccc12)C(=O)O [BAY-091],% of inhibition,[1],62%
CCN(CC)CCCCNc1ncc2cc(-c3cc(OC)cc(OC)c3)c(NC(=O)NC(C)(C)C)nc2n1,% of control,[2],100%
same,% of control,[3],100%
CN1Cc2nccc(-c3cn(C)nc3-c3ccc(F)cc3)c2C1=O,% of inhibition,[4],18%
CN(C)CCOc1ccc(-c2nc(-c3ccncc3)c(-c3ccc4c(c3)CC/C4=N\O)[nH]2)cc1,% of control,[5],100%
Nc1cnc(N2CCc3cc(S(=O)(=O)Nc4c(F)cc(Cl)cc4F)cc(N4CCCC4=O)c32)nc1 [TP-020n],% of inhibition,[6],-2.69%
O[C@H]1CC[C@H](Nc2ncc3nc(Nc4c(F)cc(F)cc4F)n([C@H]4CCOC4)c3n2)CC1,% of control,[7],100%
same,% of control,[8],100%
N#Cc1cccc(-c2c[nH]c3ncnc(N4CCOCC4)c23)c1,% of inhibition,[9],33%
C=CC(=O)Nc1cc(-n2c(=O)ccc3cnc4ccc(-c5ccc(NS(C)(=O)=O)cc5)cc4c32)ccc1C,% of control,[10],88%
Cc1ccc(-c2ccc3c(ccc4sc5c(c43)NC[C@@H](C)NC5=O)n2)cn1,% of inhibition,[11],-8%
same,% of inhibition,[12],5%
Cc1cc([C@@H](C)Nc2ccccc2C(=O)O)c2nc(N3CCOCC3)cc(=O)n2c1 [AZD-6482],% of control,[13],98%
CC[C@@H]1[C@H](F)C(=O)N[C@@H]1COc1nccc2cc(C(N)=O)c(OC)cc12 [ZIMLOVISERTIB],% of inhibition,[14],21.2%
same,% of inhibition,[15],-9.7%
COc1cc(N(C)c2ccnc3ccc(C(F)(F)F)cc23)cc(OC)c1OC,% binding,[16],80%
C=CC(=O)Nc1cccc(C(=O)Nc2ccc(Nc3cc(-c4[nH]c(SC)nc4C)ccn3)cc2)c1,% of control,[17]; at 1 µM,84%
same,% of control,[17]; at 5 µM,74%
same,% of control,[18]; at 1 µM,98%
same,% of control,[18]; at 5 µM,72%
same,% of control,[19]; at 1 µM,72%
same,% of control,[19]; at 5 µM,55%
same,% of control,[20]; at 1 µM,92%
same,% of control,[20]; at 5 µM,72%
same,% of control,[21]; at 1 µM,85%
same,% of control,[21]; at 5 µM,73%
same,% of control,[22]; at 1 µM,86%
same,% of control,[22]; at 5 µM,69%
CCC(=O)N1CC[C@H](Nc2ncnc3c2CN(c2cnc(OC)c(C(F)(F)F)c2)CC3)C1 [LENIOLISIB],IC50,[23],> 10 µM
O=C(NOC[C@H](O)CO)c1ccc(F)c(F)c1Nc1ccc(I)cc1F,% of control,[24],100%
CCC(=O)N1CCN(c2ccc(-n3c(=O)ccc4cnc5ccc(-c6cnc7ccccc7c6)cc5c43)cc2C(F)(F)F)CC1,% of control,[25],100%
